Measurements published in US9592221B2, “Antibacterial agents: aryl myxopyronin derivatives” (priority 2012, dated 2017).
In brackets after ≈: the same amount, converted by molar mass.

What was measured:
[1] = molecular target: E. coli RNA polymerase σ^70 holoenzyme (Escherichia coli, UniProt P0A8T7+P0A8V2); experiment: Fluorescence-detected RNA polymerase assay, E. coli RNA polymerase; assay type: biochemical; settings: read-out: IC50 E. coli RNAP
[2] = molecular target: M. tuberculosis RNA polymerase core enzyme, M. tuberculosis σ^A (Mycobacterium tuberculosis, UniProt P9WGY7+P9WGY9); experiment: Fluorescence-detected RNA polymerase assay, M. tuberculosis RNA polymerase; assay type: biochemical; settings: read-out: IC50 M. tuberculosis RNAP
[3] = system: Staphylococcus aureus ATCC 12600; experiment: MIC, spiral gradient endpoint assay, S. aureus ATCC 12600; assay type: cell-based; settings: ATCC12600; Staphylococcus aureus ATCC 12600
[4] = system: Acinetobacter baumannii ATCC 19606; experiment: MIC, spiral gradient endpoint assay, A. baumannii; assay type: cell-based; settings: ATCC19606; Acinetobacter baumannii ATCC 19606
[5] = system: Escherichia coli D21f2tolC; experiment: MIC, spiral gradient endpoint assay, E. coli D21f2tolC; assay type: cell-based; settings: Escherichia coli, D21F2TOLC, read-out: MIC E. coli D21f2toIC
[6] = system: Mycobacterium tuberculosis H37Rv; experiment: MIC, microplate Alamar Blue assay, M. tuberculosis; assay type: cell-based
[7] = molecular target: S. aureus RNA polymerase core enzyme, S. aureus σ^A (Staphylococcus aureus, UniProt P47768+Q2G0N5); experiment: Fluorescence-detected RNA polymerase assay, S. aureus RNA polymerase; assay type: biochemical; settings: read-out: IC50 S. aureus RNAP
[8] = system: Bacillus anthracis Vollum 1b; experiment: microbe, parasite or virus in culture; assay type: cell-based; settings: Bacillus anthracis, VOLLUM1B, read-out: MIC B. anthracis Vollum-1b
[9] = system: Francisella tularensis SCHU4; experiment: microbe, parasite or virus in culture; assay type: cell-based; settings: Francisella tularensis, SCHU4, read-out: MIC F. tularensis SCHU4
Burkholderia mallei CHN7 = experiment: microbe, parasite or virus in culture; assay type: cell-based; settings: Burkholderia mallei, CHN7, read-out: MIC B. mallei CHN7
[10] = system: Burkholderia pseudomallei Human/Blood/OH/US/1994; experiment: microbe, parasite or virus in culture; assay type: cell-based; settings: Burkholderia pseudomallei, read-out: MIC B. pseudomallei Human/Blood/OH
Brucella melitensis 16M = experiment: microbe, parasite or virus in culture; assay type: cell-based; settings: Brucella melitensis, 16M, read-out: MIC B. melitensis 16M
Yersinia pestis C092 = experiment: microbe, parasite or virus in culture; assay type: cell-based; settings: Yersinia pestis, C092, read-out: MIC Y. pestis C092

S. aureus RNA polymerase core enzyme, S. aureus σ^A, sequence (Q2G0N5 whole entry): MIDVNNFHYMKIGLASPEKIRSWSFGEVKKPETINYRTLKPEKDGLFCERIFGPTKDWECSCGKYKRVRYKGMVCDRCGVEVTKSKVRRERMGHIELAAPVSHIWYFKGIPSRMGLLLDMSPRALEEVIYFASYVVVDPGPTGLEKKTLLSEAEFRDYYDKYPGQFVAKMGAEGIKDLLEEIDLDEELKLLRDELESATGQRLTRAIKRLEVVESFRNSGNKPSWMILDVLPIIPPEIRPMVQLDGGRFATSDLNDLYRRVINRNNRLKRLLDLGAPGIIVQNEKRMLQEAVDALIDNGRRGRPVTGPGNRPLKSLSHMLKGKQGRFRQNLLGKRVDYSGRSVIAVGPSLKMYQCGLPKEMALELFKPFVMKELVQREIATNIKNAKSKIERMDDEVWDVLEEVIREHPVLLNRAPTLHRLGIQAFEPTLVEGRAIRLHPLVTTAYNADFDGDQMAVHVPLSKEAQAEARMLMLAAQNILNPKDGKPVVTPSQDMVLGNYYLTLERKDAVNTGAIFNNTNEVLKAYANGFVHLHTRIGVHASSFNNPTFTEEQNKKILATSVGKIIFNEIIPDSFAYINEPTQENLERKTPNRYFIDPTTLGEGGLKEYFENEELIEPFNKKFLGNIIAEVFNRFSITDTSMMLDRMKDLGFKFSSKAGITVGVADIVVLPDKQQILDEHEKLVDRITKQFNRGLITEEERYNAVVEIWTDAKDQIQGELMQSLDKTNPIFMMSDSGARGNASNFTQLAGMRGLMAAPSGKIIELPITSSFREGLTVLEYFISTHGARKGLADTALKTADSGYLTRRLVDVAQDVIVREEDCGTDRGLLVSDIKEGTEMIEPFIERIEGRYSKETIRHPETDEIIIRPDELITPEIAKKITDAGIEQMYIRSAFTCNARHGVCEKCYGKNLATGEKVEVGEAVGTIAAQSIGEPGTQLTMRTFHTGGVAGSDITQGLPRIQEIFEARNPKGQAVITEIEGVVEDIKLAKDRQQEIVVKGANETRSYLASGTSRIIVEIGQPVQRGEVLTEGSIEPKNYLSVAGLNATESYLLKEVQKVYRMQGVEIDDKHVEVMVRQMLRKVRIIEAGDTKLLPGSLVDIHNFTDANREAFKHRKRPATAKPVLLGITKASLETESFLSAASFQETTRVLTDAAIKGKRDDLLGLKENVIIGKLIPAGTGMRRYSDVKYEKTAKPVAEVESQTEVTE
S. aureus RNA polymerase core enzyme, S. aureus σ^A, sequence (Q2FW32 whole entry, further chain): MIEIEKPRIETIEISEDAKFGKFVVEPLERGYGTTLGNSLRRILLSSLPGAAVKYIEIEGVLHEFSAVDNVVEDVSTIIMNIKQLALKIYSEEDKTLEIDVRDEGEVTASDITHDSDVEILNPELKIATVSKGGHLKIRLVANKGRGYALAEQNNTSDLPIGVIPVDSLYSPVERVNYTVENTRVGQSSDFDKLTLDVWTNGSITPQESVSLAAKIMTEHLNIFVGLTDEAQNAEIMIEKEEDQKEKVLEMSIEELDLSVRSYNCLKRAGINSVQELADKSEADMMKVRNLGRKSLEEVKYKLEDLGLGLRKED
S. aureus RNA polymerase core enzyme, S. aureus σ^A, sequence (P0A0J0 whole entry, further chain): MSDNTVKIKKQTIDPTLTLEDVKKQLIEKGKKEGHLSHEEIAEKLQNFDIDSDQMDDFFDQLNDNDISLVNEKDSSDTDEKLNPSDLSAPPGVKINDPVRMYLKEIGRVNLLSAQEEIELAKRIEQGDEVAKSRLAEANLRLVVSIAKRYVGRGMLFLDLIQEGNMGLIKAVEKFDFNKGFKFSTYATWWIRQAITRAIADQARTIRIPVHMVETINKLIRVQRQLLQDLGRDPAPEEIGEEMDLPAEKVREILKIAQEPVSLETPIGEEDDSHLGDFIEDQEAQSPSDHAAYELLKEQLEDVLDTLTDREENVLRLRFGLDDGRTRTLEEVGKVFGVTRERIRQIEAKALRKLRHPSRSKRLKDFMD
S. aureus RNA polymerase core enzyme, S. aureus σ^A, sequence (P47768 whole entry): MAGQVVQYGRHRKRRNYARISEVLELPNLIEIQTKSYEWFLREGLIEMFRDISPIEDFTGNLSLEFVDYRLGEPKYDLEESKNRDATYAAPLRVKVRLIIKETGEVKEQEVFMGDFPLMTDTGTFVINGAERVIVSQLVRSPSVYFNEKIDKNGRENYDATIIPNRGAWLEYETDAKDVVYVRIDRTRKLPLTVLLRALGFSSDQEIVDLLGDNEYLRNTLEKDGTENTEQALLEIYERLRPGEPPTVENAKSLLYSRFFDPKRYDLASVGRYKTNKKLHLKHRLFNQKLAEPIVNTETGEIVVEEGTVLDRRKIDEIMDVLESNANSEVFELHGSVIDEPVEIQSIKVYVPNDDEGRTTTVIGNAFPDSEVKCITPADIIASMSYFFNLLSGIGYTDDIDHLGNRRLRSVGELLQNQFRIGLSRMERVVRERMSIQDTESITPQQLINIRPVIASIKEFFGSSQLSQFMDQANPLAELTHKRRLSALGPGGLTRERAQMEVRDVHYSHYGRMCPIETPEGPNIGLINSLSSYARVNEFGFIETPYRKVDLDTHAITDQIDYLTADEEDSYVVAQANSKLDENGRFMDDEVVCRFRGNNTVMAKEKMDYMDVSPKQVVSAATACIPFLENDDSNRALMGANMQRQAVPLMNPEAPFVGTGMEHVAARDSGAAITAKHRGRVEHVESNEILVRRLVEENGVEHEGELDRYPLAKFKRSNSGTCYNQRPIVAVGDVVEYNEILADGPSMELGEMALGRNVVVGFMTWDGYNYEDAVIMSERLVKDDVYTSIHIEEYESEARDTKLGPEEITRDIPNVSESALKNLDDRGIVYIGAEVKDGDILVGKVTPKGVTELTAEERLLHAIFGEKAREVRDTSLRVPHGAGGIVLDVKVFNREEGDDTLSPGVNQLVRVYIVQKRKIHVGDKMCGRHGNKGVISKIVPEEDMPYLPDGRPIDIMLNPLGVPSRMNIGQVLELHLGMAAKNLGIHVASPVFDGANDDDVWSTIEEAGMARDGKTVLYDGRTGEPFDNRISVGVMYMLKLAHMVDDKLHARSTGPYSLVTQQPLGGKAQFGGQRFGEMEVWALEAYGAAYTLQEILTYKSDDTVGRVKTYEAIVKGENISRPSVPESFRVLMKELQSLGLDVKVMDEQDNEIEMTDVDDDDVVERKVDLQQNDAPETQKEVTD

## CCCCc1ccc2c(c1)cc(C=C(C)C(=O)c1c(O)cc(C(C)CC/C=C/NC(=O)OC)oc1=O)n2C (mixture of isomers) [APY104, methyl ((1E)-5-(3-(3-(5-butyl-1-methyl-1H-indol-2-yl)-2-methylacryloyl)-4-hydroxy-2-oxo-2H-pyran-6-yl)hex-1-en-1-yl)carbamate]
[1]
  IC50: 8 nM
[2]
  IC50: 200 nM
[3]
  MIC: 5 µg/mL
[4]
  MIC: 9 µg/mL
[5]
  MIC: 0.1 µg/mL
[6]
  MIC: > 50 µg/mL

## CCOc1ccc(C=C(C)C(=O)c2c(O)cc(C(C)CC/C=C/NC(=O)OC)oc2=O)s1 (mixture of isomers) [APY102, methyl ((1E)-5-(3-(3-(5-ethoxythiophen-2-yl)-2-methylacryloyl)-4-hydroxy-2-oxo-2H-pyran-6-yl)hex-1-en-1-yl)carbamate]
[1]
  IC50: 200 nM
[2]
  IC50: 500 nM
[3]
  MIC: 10 µg/mL
[4]
  MIC: > 40 µg/mL
[5]
  MIC: 1 µg/mL
[6]
  MIC: 30 µg/mL

## CCCOc1ccc(C=C(C)C(=O)c2c(O)cc(C(C)CC/C=C/NC(=O)OC)oc2=O)s1 (mixture of isomers) [APY103, methyl ((1E)-5-(4-hydroxy-3-(2-methyl-3-(5-propoxythiophen-2-yl)acryloyl)-2-oxo-2H-pyran-6-yl)hex-1-en-1-yl)carbamate]
[1]
  IC50: 20 nM
[2]
  IC50: 20 nM
[3]
  MIC: 2 µg/mL
[4]
  MIC: > 40 µg/mL
[5]
  MIC: 0.4 µg/mL
[6]
  MIC: 30 µg/mL

## CCCCc1ccc2cc(C=C(C)C(=O)c3c(O)cc(C(C)CC/C=C/NC(=O)OC)oc3=O)sc2c1 (mixture of isomers) [APY86, methyl ((1E)-5-(3-(3-(6-butylbenzo[b]thiophen-2-yl)-2-methylacryloyl)-4-hydroxy-2-oxo-2H-pyran-6-yl)hex-1-en-1-yl)carbamate]
[1]
  IC50: 20 nM
[7]
  IC50: 300 nM
[2]
  IC50: 1000 nM
[3]
  MIC: > 40 µg/mL
[4]
  MIC: > 40 µg/mL
[5]
  MIC: 0.2 µg/mL
[6]
  MIC: > 50 µg/mL

## COCCCc1ccc(C=C(C)C(=O)c2c(O)cc(C(C)CC/C=C/NC(=O)OC)oc2=O)s1 (mixture of isomers) [APY100, methyl ((1E)-5-(4-hydroxy-3-(3-(5-(3-methoxypropyl)thiophen-2-yl)-2-methylacryloyl)-2-oxo-2H-pyran-6-yl)hex-1-en-1-yl)carbamate]
[1]
  IC50: 60 nM
[2]
  IC50: 1000 nM
[3]
  MIC: > 40 µg/mL
[4]
  MIC: > 40 µg/mL
[5]
  MIC: 1 µg/mL

## COCc1ccc(C=C(C)C(=O)c2c(O)cc(C(C)CC/C=C/NC(=O)OC)oc2=O)s1 (mixture of isomers) [APY106, methyl ((1E)-5-(4-hydroxy-3-(3-(5-(methoxymethyl)thiophen-2-yl)-2-methylacryloyl)-2-oxo-2H-pyran-6-yl)hex-1-en-1-yl)carbamate]
[1]
  IC50: 500 nM
[2]
  IC50: 4000 nM
[3]
  MIC: > 40 µg/mL
[4]
  MIC: > 40 µg/mL
[5]
  MIC: 3 µg/mL

## COC(=O)N/C=C/CCC(C)c1cc(O)c(C(=O)C(C)=Cc2ccc(OC)s2)c(=O)o1 (mixture of isomers) [APY101, methyl ((1E)-5-(4-hydroxy-3-(3-(5-methoxythiophen-2-yl)-2-methylacryloyl)-2-oxo-2H-pyran-6-yl)hex-1-en-1-yl)carbamate]
[1]
  IC50: > 6000 nM
[2]
  IC50: > 6000 nM
[3]
  MIC: > 40 µg/mL
[4]
  MIC: > 40 µg/mL
[5]
  MIC: 3 µg/mL

## COC(=O)N/C=C/CCC(C)c1cc(O)c(C(=O)C(C)=Cc2cc3cc(CCC(C)C)ccc3n2C)c(=O)o1 (mixture of isomers) [APY105, methyl ((1E)-5-(4-hydroxy-3-(3-(5-isopentyl-1-methyl-1H-indol-2-yl)-2-methylacryloyl)-2-oxo-2H-pyran-6-yl)hex-1-en-1-yl)carbamate]
[1]
  IC50: 40 nM
[2]
  IC50: 5000 nM
[3]
  MIC: > 40 µg/mL
[4]
  MIC: > 40 µg/mL
[5]
  MIC: 2 µg/mL

## CCCCc1cc(C)c(C=C(C)C(=O)c2c(O)cc(C(C)CC/C=C/NC(=O)OC)oc2=O)s1 (mixture of isomers) [APY75, methyl (E)-5-(3-((E/Z)-3-(5-butyl-3-methylthiophen-2-yl)-2-methylacryloyl)-4-hydroxy-2-oxo-2H-pyran-6-yl)hex-1-enylcarbamate]
[1]
  IC50: 9 nM
[7]
  IC50: 80 nM
[2]
  IC50: 60 nM
[3]
  MIC: 0.3 µg/mL
[4]
  MIC: 4 µg/mL
[5]
  MIC: 0.1 µg/mL
[6]
  MIC: 30 µg/mL
[8]
  MIC: 0.8 µg/mL
[9]
  MIC: 10 µg/mL
Burkholderia mallei CHN7
  MIC: 6 µg/mL
[10]
  MIC: 6 µg/mL
Brucella melitensis 16M
  MIC: 3 µg/mL

## COC(=O)N/C=C/CCC(C)c1cc(O)c(C(=O)C(C)=Cc2ccc(CCCCC(F)(F)F)s2)c(=O)o1 (mixture of isomers) [APY98, methyl ((1E)-5-(4-hydroxy-3-(2-methyl-3-(5-(5,5,5-trifluoropentyl)thiophen-2-yl)acryloyl)-2-oxo-2H-pyran-6-yl)hex-1-en-1-yl)carbamate]
[1]
  IC50: 6 nM
[2]
  IC50: 40 nM
[3]
  MIC: 1 µg/mL
[4]
  MIC: 20 µg/mL
[5]
  MIC: 0.1 µg/mL
[6]
  MIC: 50 µg/mL

## COC(=O)N/C=C/CCC(C)c1cc(O)c(C(=O)C(C)=Cc2ccc(CCCO)s2)c(=O)o1 (mixture of isomers) [APY94, methyl ((1E)-5-(4-hydroxy-3-(3-(5-(3-hydroxypropyl)thiophen-2-yl)-2-methylacryloyl)-2-oxo-2H-pyran-6-yl)hex-1-en-1-yl)carbamate]
[1]
  IC50: > 6000 nM
[2]
  IC50: > 6000 nM
[3]
  MIC: > 40 µg/mL
[4]
  MIC: > 40 µg/mL
[5]
  MIC: 3 µg/mL

## CCCCc1ccc(C=C(C)C(=O)c2c(O)cc(C(C)CC/C=C/NC(=O)OC)oc2=O)c(C)c1 (mixture of isomers) [APY87, methyl ((1E)-5-(3-(3-(4-butyl-2-methylphenyl)-2-methylacryloyl)-4-hydroxy-2-oxo-2H-pyran-6-yl)hex-1-en-1-yl)carbamate]
[1]
  IC50: 10 nM
[7]
  IC50: 70 nM
[2]
  IC50: 30 nM
[3]
  MIC: 1 µg/mL
[4]
  MIC: > 40 µg/mL
[5]
  MIC: 0.2 µg/mL
[6]
  MIC: > 50 µg/mL

## CCCCc1ccc2cc(C=C(C)C(=O)c3c(O)cc(C(C)CC/C=C/NC(=O)OC)oc3=O)oc2c1 (mixture of isomers) [APY84, methyl ((1E)-5-(3-(3-(6-butylbenzofuran-2-yl)-2-methylacryloyl)-4-hydroxy-2-oxo-2H-pyran-6-yl)hex-1-en-1-yl)carbamate]
[1]
  IC50: 2 nM
[7]
  IC50: 60 nM
[2]
  IC50: 20 nM
[3]
  MIC: 3 µg/mL
[4]
  MIC: > 40 µg/mL
[5]
  MIC: 0.1 µg/mL
[6]
  MIC: 30 µg/mL

## CCC(C)Oc1ccc2c(c1)cc(C=C(C)C(=O)c1c(O)cc(C(C)CC/C=C/NC(=O)OC)oc1=O)n2C (centres unmarked) [APY122, methyl ((1E)-5-(3-(3-(5-(sec-butoxy)-1-methyl-1H-indol-2-yl)-2-methylacryloyl)-4-hydroxy-2-oxo-2H-pyran-6-yl)hex-1-en-1-yl)carbamate]
[1]
  IC50: 100 nM
[3]
  MIC: > 40 µg/mL
[4]
  MIC: > 40 µg/mL
[5]
  MIC: 0.5 µg/mL (≈ 0.932 µM)
[6]
  MIC: > 50 µg/mL
[8]
  MIC: 50 µg/mL (≈ 93.2 µM)
[9]
  MIC: 50 µg/mL (≈ 93.2 µM)
Yersinia pestis C092
  MIC: > 50 µg/mL
Burkholderia mallei CHN7
  MIC: > 50 µg/mL
[10]
  MIC: > 50 µg/mL
Brucella melitensis 16M
  MIC: > 50 µg/mL

## COC(=O)N/C=C/CCC(C)c1cc(O)c(C(=O)C(C)=Cc2sc(CCC(C)C)cc2C)c(=O)o1 (mixture of isomers) [APY76, methyl (E)-5-(3-((E/Z)-3-(5-isopentyl-3-methylthiophen-2-yl)-2-methylacryloyl)-4-hydroxy-2-oxo-2H-pyran-6-yl)hex-1-enylcarbamate]
[1]
  IC50: 3 nM
[7]
  IC50: 80 nM
[2]
  IC50: 50 nM
[3]
  MIC: 0.2 µg/mL
[4]
  MIC: 4 µg/mL
[5]
  MIC: 0.09 µg/mL
[6]
  MIC: 30 µg/mL
[8]
  MIC: 0.4 µg/mL
[9]
  MIC: 10 µg/mL
Burkholderia mallei CHN7
  MIC: 6 µg/mL
[10]
  MIC: 6 µg/mL
Brucella melitensis 16M
  MIC: 3 µg/mL

## CCCOc1ccc(C=C(C)C(=O)c2c(O)cc(C(C)CC/C=C/NC(=O)OC)oc2=O)cc1 (mixture of isomers) [APY40, methyl (E)-5-(4-hydroxy-3-((E/Z)-2-methyl-3-(4-propoxyphenyl)acryloyl)-2-oxo-2H-pyran-6-yl)hex-1-enylcarbamate]
[1]
  IC50: 10 nM
[3]
  MIC: 1 µg/mL
[4]
  MIC: 9 µg/mL
[5]
  MIC: 0.4 µg/mL
[6]
  MIC: 6 µg/mL
[8]
  MIC: 10 µg/mL
[9]
  MIC: > 50 µg/mL
Yersinia pestis C092
  MIC: > 50 µg/mL
Burkholderia mallei CHN7
  MIC: > 50 µg/mL
[10]
  MIC: > 50 µg/mL
Brucella melitensis 16M
  MIC: 3 µg/mL

## COC(=O)N/C=C/CCC(C)c1cc(O)c(C(=O)C(C)=Cc2ccc(CCCCCF)s2)c(=O)o1 (centres unmarked) [APY97, methyl ((1E)-5-(3-(3-(5-(5-fluoropentyl)thiophen-2-yl)-2-methylacryloyl)-4-hydroxy-2-oxo-2H-pyran-6-yl)hex-1-en-1-yl)carbamate]
[1]
  IC50: 20 nM
[7]
  IC50: 400 nM
[3]
  MIC: 2 µg/mL (≈ 3.96 µM)
[4]
  MIC: > 40 µg/mL
[5]
  MIC: 0.1 µg/mL (≈ 0.198 µM)
[6]
  MIC: > 50 µg/mL
